# Test results published in patent US7678810B2, “Thiazole derivative” (Taisho Pharmaceutical Co., Ltd, priority 2004, dated 2010).
# Legend:
# [1] = tested on: Smad2/3 phosphorylation caused by TGF-β1 stimulation; experiment: Smad2/3 phosphorylation inhibitory activity test; format: cell-based; conditions: Homo sapiens; A549 cells; compound 2 hours before TGF-β1 1 ng/ml, 1 hour; anti-Smad2/3 immunoprecipitation, Western blotting
# Experimental: A549 cells were seeded to a plate, and cultured overnight in a Ham's F-12 medium supplemented with 10% FBS. This medium was replaced with the same medium containing the compounds or not containing the compounds, and after incubated another 2 hours, TGF-01 was added thereto so as to make its final concentration 1 ng/ml, and further incubated another 1 hour. After completion of incubation, the medium was removed, and the cells were washed with PBS and then lysed by a RIPA solution. The cell lysate solution was subjected to immunoprecipitation using anti-Smad2/3 antibody, and then Western blotting was performed. Using a rabbit anti-phosphorylated serine antibody as a primary antibody, a HRP-labeled anti-rabbit IgG antibody as a secondary antibody, and ECL Western blotting detection reagents as detection reagents, light emitting amounts were measured using Limi-Imager F1 (Roche Diagnostics) etc.
# Following the above described methods, the inhibitory activities of the respective compounds against Smad2/3 phosphorylation caused by TGF-β1 stimulation were measured, and IC50 values were calculated.
Structure (SMILES),IC50 [1],melting point
Cc1csc(-c2nc(-c3ccc(C(N)=O)cc3)[nH]c2-c2ccc3ncsc3c2)n1 [Compound 50],80 nM,
Cc1csc(-c2nc(C)[nH]c2-c2ccc3ncsc3c2)n1 [Compound 52],24 nM,
CCCCc1nc(-c2nc(C)cs2)c(-c2ccc3ncsc3c2)[nH]1 [Compound 57],45 nM,
Cc1csc(-c2nc(N)[nH]c2-c2ccc3ncsc3c2)n1 [Compound 68],31 nM,
Cc1csc(-c2nc(C3CCC(=O)CC3)[nH]c2-c2ccc3ncsc3c2)n1 [Compound 80],89 nM,
CCCC(O)CCc1nc(-c2nc(C)cs2)c(-c2ccc3ncsc3c2)[nH]1 (stereo not shown) [Compound 81],52 nM,
COCCCCc1nc(-c2nc(C)cs2)c(-c2ccc3ncsc3c2)[nH]1 [Compound 87],38 nM,
CCCC(=O)NCc1nc(-c2nc(C)cs2)c(-c2ccc3ncsc3c2)[nH]1 [Compound 105],32 nM,
COCC(=O)NCc1nc(-c2nc(C)cs2)c(-c2ccc3ncsc3c2)[nH]1 [Compound 124],67 nM,223.5 to 224 °C
Cc1csc(-c2nc(CNC(=O)C3CCOCC3)[nH]c2-c2ccc3ncsc3c2)n1 [Compound 129],107 nM,197 to 197.5 °C
CCNC(=O)NCc1nc(-c2nc(C)cs2)c(-c2ccc3ncsc3c2)[nH]1 [Compound 175],126 nM,
COC(=O)NCc1nc(-c2nc(C)cs2)c(-c2ccc3ncsc3c2)[nH]1 [Compound 186],38 nM,
CCOC(=O)NCc1nc(-c2nc(C)cs2)c(-c2ccc3ncsc3c2)[nH]1 [Compound 187],,183 to 184 °C
C#CCOC(=O)NCc1nc(-c2nc(C)cs2)c(-c2ccc3ncsc3c2)[nH]1 [Compound 191],31 nM,
CCCCOC(=O)NCc1nc(-c2nc(C)cs2)c(-c2ccc3ncsc3c2)[nH]1 [Compound 193],,161 to 162 °C
Cc1csc(-c2nc(CNC(=O)OCC(C)C)[nH]c2-c2ccc3ncsc3c2)n1 [Compound 194],,142.5 to 144 °C
CCCCCOC(=O)NCc1nc(-c2nc(C)cs2)c(-c2ccc3ncsc3c2)[nH]1 [Compound 195],,177.5 to 178.5 °C
Cc1csc(-c2nc(CN3CCOC3=O)[nH]c2-c2ccc3ncsc3c2)n1 [Compound 197],92 nM,
Cc1csc(-c2nc(COC(=O)N(C)C)[nH]c2-c2ccc3ncsc3c2)n1 [Compound 199],70 nM,181.5 to 182 °C
N#Cc1ccc(-c2nc(-c3nccs3)c(-c3ccccn3)n2O)cc1 [Compound 202],,248 to 251 °C (dec.)
Cc1csc(C(=O)C(=O)c2ccc3c(c2)OCO3)n1 [Compound 203],,131.5 to 132.5 °C
Cc1csc(C(=O)C(=O)c2ccc(F)cc2)n1 [Compound 206],,75 to 77 °C
Cc1csc(C#Cc2ccc3c(c2)OCO3)n1 [Compound 217],,111.5 to 112 °C
Cc1csc(C#Cc2ccc(F)cc2)n1 [Compound 219],,82 to 83 °C
Cc1csc(-c2nc(C3CCC(=O)N3)[nH]c2-c2ccc3ncsc3c2)n1 (stereo not shown) [Compound 229],,273 to 275 °C (dec.)
Cc1csc(-c2nc(C3CCC(=O)N3)[nH]c2-c2ccc3ncsc3c2)n1 (stereo not shown) [Compound 230],,263 to 268 °C (dec.)
COc1ccc(Cn2c(C)nc(-c3nc(C)cs3)c2-c2ccc3ncsc3c2)cc1 [Compound 231],,144 to 145 °C
Cc1csc(-c2nc(C)n(Cc3ccc(OCCN(C)C)cc3)c2-c2ccc3ncsc3c2)n1 [Compound 233],,146.5 to 148 °C
CNC(=O)OCc1nc(-c2nc(C)cs2)c(-c2ccc3ncsc3c2)[nH]1 [Compound 235],,158 to 159.5 °C
CNC(=O)NCc1nc(-c2nc(C)cs2)c(-c2ccc3ncsc3c2)[nH]1 [Compound 238],,239 to 239.5 °C

# Second part, the compound after the results:
IC50 [1],melting point,Structure (SMILES)
99 nM,,Cc1csc(-c2nc(C3CCOCC3)[nH]c2-c2ccc3ncsc3c2)n1 [Compound 83]
89 nM,,CCCNC(=O)CCCCc1nc(-c2nc(C)cs2)c(-c2ccc3ncsc3c2)[nH]1 [Compound 171]
77 nM,,Cc1csc(-c2nc(CNC(=O)N(C)C)[nH]c2-c2ccc3ncsc3c2)n1 [Compound 176]
,205.5 to 206 °C,Cc1csc(-c2nc(CNC(=O)N3CCOCC3)[nH]c2-c2ccc3ncsc3c2)n1 [Compound 185]
,202 to 204 °C (dec.),Cc1csc(-c2nc(CNC(=O)OCCCl)[nH]c2-c2ccc3ncsc3c2)n1 [Compound 188]
,170.5 to 171.5 °C,Cc1csc(-c2nc(CNC(=O)OCC(C)(C)C)[nH]c2-c2ccc3ncsc3c2)n1 [Compound 196]
93 nM,,CCNC(=O)OCc1nc(-c2nc(C)cs2)c(-c2ccc3ncsc3c2)[nH]1 [Compound 198]
42 nM,,CCCC(=O)CCc1nc(-c2nc(C)cs2)c(-c2ccc3ncsc3c2)[nH]1 [Compound 201]
,215.5 to 218.5 °C,Cc1csc(-c2nc(C)n(Cc3ccc(O)cc3)c2-c2ccc3ncsc3c2)n1 [Compound 232]
,129.5 to 131 °C,COCCOc1ccc(Cn2c(C)nc(-c3nc(C)cs3)c2-c2ccc3ncsc3c2)cc1 [Compound 234]
,220.5 to 222 °C,Cc1csc(-c2nc(CNC(=O)C3CCCCO3)[nH]c2-c2ccc3ncsc3c2)n1 (stereo not shown) [Compound 241]
,190.5 to 192 °C,Cc1nc(-c2nc(C(F)(F)F)cs2)c(-c2ccc3ncsc3c2)[nH]1 [Compound 244]
,163.5 to 164.5 °C,O=C(C(=O)c1nc(C(F)(F)F)cs1)c1ccc2ncsc2c1 [Compound 251]
